We go through 21 compounds from patent US11304929B2, “Tosylacetate based compounds and derivatives thereof as PHGDH inhibitors” (priority 2017, dated 2022).

The structures appear in SMILES notation.

The target in the first experiment is PHGDH (Homo sapiens (Human), UniProt O43175). As to the kind of experiment: 3-Phosphoglycerate Dehydrogenase (PHGDH) Fluorescence Intensity Assay, run at two NAD/3-PG ratios: PHGDH_HIGH_NAD/3-PG (250 μM NAD/500 μM 3-PG) and PHGDH_500_NAD/3-PG (500 μM NAD/500 μM 3-PG). The class given is biochemical. To be noted: 250 μM NAD/500 μM 3-PG; read-out: IC50 (PHGDH_HIGH_NAD/3-PG).
PHGDH, sequence (O43175 2-533 limits assumed): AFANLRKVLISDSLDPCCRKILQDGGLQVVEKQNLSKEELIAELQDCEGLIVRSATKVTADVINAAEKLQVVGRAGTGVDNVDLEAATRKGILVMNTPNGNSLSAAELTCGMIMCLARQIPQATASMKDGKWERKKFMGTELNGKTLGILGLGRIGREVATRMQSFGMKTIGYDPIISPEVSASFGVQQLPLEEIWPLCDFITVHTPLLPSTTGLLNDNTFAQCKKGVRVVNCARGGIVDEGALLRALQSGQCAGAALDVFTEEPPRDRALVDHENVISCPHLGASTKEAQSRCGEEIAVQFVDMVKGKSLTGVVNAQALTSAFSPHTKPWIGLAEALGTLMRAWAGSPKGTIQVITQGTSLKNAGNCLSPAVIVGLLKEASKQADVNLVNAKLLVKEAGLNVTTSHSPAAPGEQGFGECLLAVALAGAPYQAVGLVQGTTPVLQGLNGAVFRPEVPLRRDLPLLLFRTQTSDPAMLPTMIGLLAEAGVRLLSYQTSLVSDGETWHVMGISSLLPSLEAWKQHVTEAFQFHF
With `C[C@H](C(=O)O)S(=O)(=O)c1ccc([C@@H](C)NC(=O)c2cc3cc(Cl)ccc3n2C)cc1` [Example 07-008, (2R)-2-{4-[(1R)-1-[(5-chloro-1-methyl-1H-indol-2-yl)formamido]ethyl]benzenesulfonyl}propanoic acid], the IC50 was determined as 139 nM. Still for that read-out and setting: with `CC(C(=O)O)S(=O)(=O)c1ccc([C@@H](C)NC(=O)c2cc3cc(Cl)ccc3n2C)cc1` (stereo partly drawn) [Example 07-009, 2-{4-[(1R)-1-[(5-chloro-1-methyl-1H-indol-2-yl)formamido]ethyl]benzenesulfonyl}propanoic acid] the figure was 190 nM; with `COCCC(C(=O)O)S(=O)(=O)c1ccc([C@@H](C)NC(=O)c2cc3c(Cl)cc(C)cc3n2C)cc1` (stereo partly drawn) [Example 07-010, 2-{4-[(1R)-1-[(4-chloro-1,6-dimethyl-1H-indol-2-yl)formamido]ethyl]benzenesulfonyl}-4-methoxybutanoic acid], 21 nM; with `CCC(C(=O)O)S(=O)(=O)c1ccc([C@@H](C)NC(=O)c2cc3c(Cl)cc(C)cc3n2C)cc1` (stereo partly drawn) [Example 07-011, 2-{4-[(1R)-1-[(4-chloro-1,6-dimethyl-1H-indol-2-yl)formamido]ethyl]benzenesulfonyl}butanoic acid], 11 nM.

In the case of `Cc1cc(Cl)c2cc(C(=O)N[C@H](C)c3ccc(S(=O)(=O)C4(C(=O)O)CC4)cc3)n(C)c2c1` [Example 07-013, 1-{4-[(1R)-1-[(4-chloro-1,6-dimethyl-1H-indol-2-yl)formamido]ethyl]benzenesulfonyl}cyclopropane-1-carboxylic acid], the IC50 came to 10 nM.

With `Cc1cc2c(cc(C(=O)N[C@H](CO)c3ccc(S(=O)(=O)C(C)(C)C(=O)O)cc3)n2C)c(Cl)c1Cl` [Example 07-014, 2-{4-[(1S)-1-[(4,5-dichloro-1,6-dimethyl-1H-indol-2-yl)formamido]-2-hydroxyethyl]benzenesulfonyl}-2-methylpropanoic acid], the IC50 stood at 4 nM.

For `Cc1cc2c(cc(C(=O)N[C@H](C)c3ccc(S(=O)(=O)C(C)(C)C(=O)O)cc3)n2C)c(Cl)c1Cl` [Example 07-015, 2-{4-[(1R)-1-[(4,5-dichloro-1,6-dimethyl-1H-indol-2-yl)formamido]ethyl]benzenesulfonyl}-2-methylpropanoic acid], the IC50 worked out at 5 nM. Turning to `C[C@@H](NC(=O)c1cc(-c2ccc(F)cc2)nn1C)c1ccc(S(=O)(=O)C(C)(C)C(=O)O)cc1` [Example 08-001, 2-{4-[(1R)-1-{[3-(4-fluorophenyl)-1-methyl-1H-pyrazol-5-yl]formamido}ethyl]benzenesulfonyl}-2-methylpropanoic acid], the IC50 was 161 nM. On the same count and under the same terms, the value for `C[C@@H](NC(=O)c1cc(-c2ccc(F)cc2)nn1C)c1ccc(S(=O)(=O)C2(C(=O)O)CCCC2)cc1` [Example 08-002, 1-{4-[(1R)-1-{[3-(4-fluorophenyl)-1-methyl-1H-pyrazol-5-yl]formamido}ethyl]benzenesulfonyl}cyclopentane-1-carboxylic acid] was 74 nM; that for `C[C@@H](NC(=O)c1cc(-c2ccc(F)cc2)nn1C)c1ccc(S(=O)(=O)C2(C(=O)O)CCOCC2)cc1` [Example 08-003, 4-{4-[(1R)-1-{[3-(4-fluorophenyl)-1-methyl-1H-pyrazol-5-yl]formamido}ethyl]benzenesulfonyl}oxane-4-carboxylic acid] was 139 nM.

Consider `COCCOC(=O)CS(=O)(=O)c1ccc([C@@H](C)NC(=O)c2cc3cc(C(F)(F)F)ccc3n2C)cc1` [Example 09-008, 2-methoxyethyl 2-{4-[(1R)-1-{[1-methyl-5-(trifluoromethyl)-1H-indol-2-yl]formamido}ethyl]benzenesulfonyl}acetate], for which the IC50 was determined as 3460 nM. For the compound `CCCCOC(=O)CS(=O)(=O)c1ccc([C@@H](C)NC(=O)c2cc3c(Cl)cc(C)cc3n2C)cc1` [Example 09-009, butyl 2-{4-[(1R)-1-[(4-chloro-1,6-dimethyl-1H-indol-2-yl)formamido]ethyl]benzenesulfonyl}acetate], the IC50 turned out to be 3740 nM. On the same count and under the same terms, the value for `Cc1cc(Cl)c2cc(C(=O)N[C@H](C)c3ccc(S(=O)(=O)CC(=O)OCc4ccncc4)cc3)n(C)c2c1` [Example 09-010, pyridin-4-ylmethyl 2-{4-[(1R)-1-[(4-chloro-1,6-dimethyl-1H-indol-2-yl)formamido]ethyl]benzenesulfonyl}acetate] was 175 nM. As for `Cc1cc(Cl)c2cc(C(=O)N[C@H](C)c3ccc(S(=O)(=O)CC(=O)OCC(COC(=O)C(C)(C)C)COC(=O)C(C)(C)C)cc3)n(C)c2c1` [Example 09-015, 2-{[(2-{4-[(1R)-1-[(4-chloro-1,6-dimethyl-1H-indol-2-yl)formamido]ethyl]benzenesulfonyl}acetyl)oxy]methyl}-3-[(2,2-dimethylpropanoyl)oxy]propyl 2,2-dimethylpropanoate], the IC50 turned out to be 9190 nM.

For `Cc1cc(Cl)c2cc(C(=O)N[C@H](C)c3ccc(S(=O)(=O)CC(=O)OCC4CC4)cc3)n(C)c2c1` [Example 09-016, cyclopropylmethyl 2-{4-[(1R)-1-[(4-chloro-1,6-dimethyl-1H-indol-2-yl)formamido]ethyl]benzenesulfonyl}acetate], the IC50 amounted to 2100 nM. For the compound `Cc1cc(Cl)c2cc(C(=O)N[C@H](C)c3ccc(S(=O)(=O)CC(=O)OCC4COC4)cc3)n(C)c2c1` [Example 09-017, oxetan-3-ylmethyl 2-{4-[(1R)-1-[(4-chloro-1,6-dimethyl-1H-indol-2-yl)formamido]ethyl]benzenesulfonyl}acetate], the IC50 was determined as 177 nM.

Take `Cc1cc(Cl)c2cc(C(=O)N[C@H](C)c3ccc(S(=O)(=O)CC(=O)O[C@H]4CCOC4)cc3)n(C)c2c1` [Example 09-018, (3S)-oxolan-3-yl 2-{4-[(1R)-1-[(4-chloro-1,6-dimethyl-1H-indol-2-yl)formamido]ethyl]benzenesulfonyl}acetate]: the IC50 is 418 nM.

On to `Cc1cc(Cl)c2cc(C(=O)N[C@H](C)c3ccc(S(=O)(=O)CC(=O)O[C@@H]4CCOC4)cc3)n(C)c2c1` [Example 09-019, (3R)-oxolan-3-yl 2-{4-[(1R)-1-[(4-chloro-1,6-dimethyl-1H-indol-2-yl)formamido]ethyl]benzenesulfonyl}acetate], for which the IC50 was found to be 250 nM. On the same count and under the same terms, with `COC(C)(C)COC(=O)CS(=O)(=O)c1ccc([C@@H](C)NC(=O)c2cc3c(Cl)cc(C)cc3n2C)cc1` [Example 09-021, 2-methoxy-2-methylpropyl 2-{4-[(1R)-1-[(4-chloro-1,6-dimethyl-1H-indol-2-yl)formamido]ethyl]benzenesulfonyl}acetate] the figure was 574 nM; with `CC(=O)OCC(COC(C)=O)COC(=O)CS(=O)(=O)c1ccc([C@@H](C)NC(=O)c2cc3c(Cl)cc(C)cc3n2C)cc1` [Example 09-022, 3-(acetyloxy)-2-[(acetyloxy)methyl]propyl 2-{4-[(1R)-1-[(4-chloro-1,6-dimethyl-1H-indol-2-yl)formamido]ethyl]benzenesulfonyl}acetate], 431 nM.

Still in this experiment, the particulars now being: 500 μM NAD/500 μM 3-PG; read-out: IC50 (PHGDH_500_NAD/3-PG).
For the compound `Cc1cc(Cl)c2cc(C(=O)N[C@H](C)c3ccc(S(=O)(=O)C4(C(=O)O)CC4)cc3)n(C)c2c1` [Example 07-013, 1-{4-[(1R)-1-[(4-chloro-1,6-dimethyl-1H-indol-2-yl)formamido]ethyl]benzenesulfonyl}cyclopropane-1-carboxylic acid], the IC50 worked out at 15 nM. In the case of `Cc1cc2c(cc(C(=O)N[C@H](CO)c3ccc(S(=O)(=O)C(C)(C)C(=O)O)cc3)n2C)c(Cl)c1Cl` [Example 07-014, 2-{4-[(1S)-1-[(4,5-dichloro-1,6-dimethyl-1H-indol-2-yl)formamido]-2-hydroxyethyl]benzenesulfonyl}-2-methylpropanoic acid], the IC50 amounted to 6 nM. Regarding `Cc1cc2c(cc(C(=O)N[C@H](C)c3ccc(S(=O)(=O)C(C)(C)C(=O)O)cc3)n2C)c(Cl)c1Cl` [Example 07-015, 2-{4-[(1R)-1-[(4,5-dichloro-1,6-dimethyl-1H-indol-2-yl)formamido]ethyl]benzenesulfonyl}-2-methylpropanoic acid], the IC50 was 9 nM. Consider `CC(=O)N1CCC(C(=O)O)(S(=O)(=O)c2ccc([C@@H](C)NC(=O)c3cc4c(Cl)c(Cl)c(C)cc4n3C)cc2)CC1` [Example 07-016, 1-acetyl-4-{4-[(1R)-1-[(4,5-dichloro-1,6-dimethyl-1H-indol-2-yl)formamido]ethyl]benzenesulfonyl}piperidine-4-carboxylic acid], for which the IC50 turned out to be 21 nM.

Consider `C[C@@H](NC(=O)c1cc(-c2ccc(F)cc2)nn1C)c1ccc(S(=O)(=O)C2(C(=O)O)CCCC2)cc1` [Example 08-002, 1-{4-[(1R)-1-{[3-(4-fluorophenyl)-1-methyl-1H-pyrazol-5-yl]formamido}ethyl]benzenesulfonyl}cyclopentane-1-carboxylic acid], for which the IC50 was 95 nM.
